Source: ChEMBL document CHEMBL1137492, “Phenylethyl-substituted pyrimido[2,1-f]purinediones and related compounds: structure-activity relationships as adenosine A(1) and A(2A) receptor ligands” (Bioorg Med Chem, 2007)

Key:
Adenosine receptor A1 [1] = biological target: T1, Adenosine receptor A1 (Rattus norvegicus, UniProt P25099); assay: Displacement of [3H]CCPA from adenosine A1 receptor in rat brain cortical membrane; assay type: cell membranes
T1 sequence (P25099 whole entry): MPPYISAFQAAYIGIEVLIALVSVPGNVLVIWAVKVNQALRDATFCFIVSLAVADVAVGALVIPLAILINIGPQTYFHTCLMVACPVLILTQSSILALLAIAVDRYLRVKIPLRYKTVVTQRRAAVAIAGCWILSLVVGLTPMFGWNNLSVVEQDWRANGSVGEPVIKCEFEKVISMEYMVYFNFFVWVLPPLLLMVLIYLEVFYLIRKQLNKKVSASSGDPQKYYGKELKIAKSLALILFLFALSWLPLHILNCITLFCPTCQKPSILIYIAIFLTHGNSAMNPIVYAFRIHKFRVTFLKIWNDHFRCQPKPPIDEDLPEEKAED

Adenosine receptor A2b = biological target: T2, Adenosine receptor A2b (Homo sapiens, UniProt P29275); assay: Displacement of [3H]ZM-241385 from human adenosine A2B receptor expressed in CHO cells; assay type: cell-based
T2 sequence (P29275 whole entry): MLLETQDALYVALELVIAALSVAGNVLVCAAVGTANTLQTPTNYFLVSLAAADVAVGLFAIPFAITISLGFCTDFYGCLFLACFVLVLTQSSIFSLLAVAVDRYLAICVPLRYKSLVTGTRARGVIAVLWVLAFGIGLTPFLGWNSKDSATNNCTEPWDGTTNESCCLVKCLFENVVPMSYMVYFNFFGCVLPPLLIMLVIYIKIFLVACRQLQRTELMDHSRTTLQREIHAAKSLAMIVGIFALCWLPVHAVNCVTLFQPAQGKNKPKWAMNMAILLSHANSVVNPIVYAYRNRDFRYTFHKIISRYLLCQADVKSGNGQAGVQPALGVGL

[2] = biological target: T3, Adenosine receptor A2b (Homo sapiens) (UniProt P29275); assay: Displacement of [3H]PSB298 from human adenosine A2B receptor expressed in CHO cells at 10 uM; assay type: cell-based
T3 sequence (whole entry): T2 sequence (P29275 whole entry)

Adenosine receptor A2a [3] = biological target: Adenosine receptor A2a (Rattus norvegicus, UniProt P30543)
[4] = biological target: Adenosine receptor A2a (Rattus norvegicus) (UniProt P30543); assay: Displacement of [3H]MSX2 from adenosine A2A receptor in rat brain striatal membrane at 10 uM; assay type: cell membranes
[5] = biological target: Adenosine receptor A1 (Rattus norvegicus) (UniProt P25099); assay: Displacement of [3H]CCPA from adenosine A1 receptor in rat brain cortical membrane at 10 uM
[6] = biological target: Adenosine receptor A2a (Rattus norvegicus) (UniProt P30543); assay: Displacement of [3H]MSX2 from adenosine A2A receptor in rat brain striatal membrane at 25 uM; assay type: cell membranes
[7] = biological target: T3, Adenosine receptor A2b (Homo sapiens); assay: Displacement of [3H]ZM-241385 from human adenosine A2B receptor expressed in CHO cells at 10 uM; assay type: cell-based
[8] = biological target: T4, Adenosine receptor A3 (Homo sapiens) (UniProt P0DMS8); assay: (§1) Displacement of [3H]PSB11 from human adenosine A3 receptor expressed in CHO cells at 10 uM; assay type: cell-based
T4 sequence (whole entry): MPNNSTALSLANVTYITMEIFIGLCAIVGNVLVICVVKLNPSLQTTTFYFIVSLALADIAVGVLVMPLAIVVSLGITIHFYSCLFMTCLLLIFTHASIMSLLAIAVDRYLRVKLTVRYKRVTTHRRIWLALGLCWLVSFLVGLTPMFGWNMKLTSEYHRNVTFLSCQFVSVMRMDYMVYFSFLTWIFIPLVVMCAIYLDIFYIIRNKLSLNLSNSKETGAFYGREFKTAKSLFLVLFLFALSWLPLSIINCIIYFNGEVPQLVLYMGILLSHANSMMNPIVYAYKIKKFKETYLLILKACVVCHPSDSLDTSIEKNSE

Adenosine receptor A3 [9] = biological target: T5, Adenosine receptor A3 (Homo sapiens, UniProt P0DMS8); assay: Displacement of [3H]PSB11 from human adenosine A3 receptor expressed in CHO cells; assay type: cell-based
T5 sequence (P0DMS8 whole entry): T4 sequence (whole entry)

Adenosine receptor A3 [10] = biological target: T5, Adenosine receptor A3; assay: as §1; assay type: cell-based
Adenosine receptor A2a [11] = biological target: Adenosine receptor A2a (Homo sapiens, UniProt P29274); assay: Displacement of [3H]MSX2 from human adenosine A2A receptor expressed in CHO cells; assay type: cell-based
Mus musculus [12] = assay: Toxicity in Albino F1 mouse assessed as tonic extension followed by death at 30 mg/kg after 0.5 hrs; assay type: organism-based; parameters: dose 30 mg/kg; settings: in vivo
Adenosine receptor A1 [13] = biological target: T6, Adenosine receptor A1 (Homo sapiens, UniProt P30542); assay: Displacement of [3H]CCPA from human adenosine A1 receptor expressed in CHO cells; assay type: cell-based
T6 sequence (P30542 whole entry): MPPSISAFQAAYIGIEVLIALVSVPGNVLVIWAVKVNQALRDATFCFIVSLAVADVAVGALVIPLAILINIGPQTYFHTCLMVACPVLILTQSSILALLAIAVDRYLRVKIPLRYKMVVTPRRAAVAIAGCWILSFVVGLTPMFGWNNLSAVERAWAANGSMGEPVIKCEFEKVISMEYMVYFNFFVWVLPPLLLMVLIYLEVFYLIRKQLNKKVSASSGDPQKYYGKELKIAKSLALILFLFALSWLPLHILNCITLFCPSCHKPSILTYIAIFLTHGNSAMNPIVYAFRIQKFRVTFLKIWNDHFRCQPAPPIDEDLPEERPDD

[14] = biological target: T7, Adenosine receptor A1 (Homo sapiens) (UniProt P30542); assay: Displacement of [3H]CCPA from human adenosine A1 receptor expressed in CHO cells at 25 uM; assay type: cell-based
T7 sequence (whole entry): T6 sequence (P30542 whole entry)

[15] = biological target: Adenosine receptor A1 (Rattus norvegicus) (UniProt P25099); assay: Displacement of [3H]CCPA from adenosine A1 receptor in rat brain cortical membrane at 25 uM
Mus musculus [16] = assay: Toxicity in Albino F1 mouse assessed as tonic extension followed by death at 300 mg/kg after 0.5 hrs; assay type: organism-based; parameters: dose 300 mg/kg; settings: in vivo
Mus musculus [17] = assay: Toxicity in Albino F1 mouse assessed as death following tonic extension at 300 mg/kg after 0.5 hrs; settings: in vivo
Mus musculus [18] = assay: Toxicity in Albino F1 mouse assessed as continuous seizure at 100 mg/kg after 0.5 hrs; assay type: organism-based; parameters: dose 100 mg/kg; settings: in vivo
Mus musculus [19] = assay: Toxicity in Albino F1 mouse assessed as continuous seizure followed by death at 100 mg/kg after 0.5 hrs; assay type: organism-based; parameters: dose 100 mg/kg; settings: in vivo

Sequence of Adenosine receptor A2a (Rattus norvegicus, UniProt P30543) (P30543 whole entry): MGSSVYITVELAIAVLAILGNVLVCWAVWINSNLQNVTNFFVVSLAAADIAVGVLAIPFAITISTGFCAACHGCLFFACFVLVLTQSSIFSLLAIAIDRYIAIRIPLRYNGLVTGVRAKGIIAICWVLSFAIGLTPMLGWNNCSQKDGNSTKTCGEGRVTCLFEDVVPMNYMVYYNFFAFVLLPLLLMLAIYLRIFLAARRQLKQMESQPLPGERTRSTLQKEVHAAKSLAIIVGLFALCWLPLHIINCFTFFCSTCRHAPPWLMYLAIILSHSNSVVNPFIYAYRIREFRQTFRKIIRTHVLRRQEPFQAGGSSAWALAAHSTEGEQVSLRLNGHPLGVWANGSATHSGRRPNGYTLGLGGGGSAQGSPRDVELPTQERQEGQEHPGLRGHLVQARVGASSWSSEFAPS
Sequence of Adenosine receptor A2a (Rattus norvegicus) (P30543 whole entry): as above
Sequence of Adenosine receptor A2a (Homo sapiens, UniProt P29274) (P29274 whole entry): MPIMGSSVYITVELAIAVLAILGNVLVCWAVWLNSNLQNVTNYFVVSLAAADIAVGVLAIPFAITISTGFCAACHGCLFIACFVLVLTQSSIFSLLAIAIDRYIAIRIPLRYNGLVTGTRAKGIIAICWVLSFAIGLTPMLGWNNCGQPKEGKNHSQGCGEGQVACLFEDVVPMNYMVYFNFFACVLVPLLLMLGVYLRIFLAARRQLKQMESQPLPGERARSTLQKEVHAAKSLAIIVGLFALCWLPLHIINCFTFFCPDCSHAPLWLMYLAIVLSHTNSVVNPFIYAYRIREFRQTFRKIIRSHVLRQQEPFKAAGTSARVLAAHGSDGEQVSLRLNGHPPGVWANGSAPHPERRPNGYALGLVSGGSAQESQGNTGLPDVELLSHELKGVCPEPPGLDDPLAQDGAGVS

| SMILES | Ki (Adenosine receptor A1 [1]) [µM] | Ki (Adenosine receptor A2a [3]) [nM] | Ki (Adenosine receptor A3 [9]) [nM] | also measured |
| --- | --- | --- | --- | --- |
| Cn1c(=O)c2c(nc3n2CCCN3CCOc2ccc(Cl)cc2)n(C)c1=O | 4.22 | 25000 | > 1000 | Activity [6]: 49%; Activity [7]: 44%; Activity [8]: 45%; Ki (Adenosine receptor A2b): 10 µM |
| Cn1c(=O)c2c(nc3n2CCCN3CCc2ccccc2)n(C)c1=O | > 25 | 320 | > 10000 | Activity [7]: 57%; Inhibition (Adenosine receptor A3 [10]): 20%; Ki (Adenosine receptor A2a [11]): 2.89 µM; Activity (Mus musculus [12]): Toxic; Ki (Adenosine receptor A2b): 10 µM; Ki (Adenosine receptor A1 [13]): > 10 µM; Activity [14]: 44%; Activity [15]: 31% |
| CCCn1c(=O)c2c(nc3n2CCCN3CCc2ccccc2)n(CCC)c1=O | 0.62 | 860 | 3660 | Ki (Adenosine receptor A2b): 0.59 µM |
| Cc1ccc(OCCN2CCCn3c2nc2c3c(=O)n(C)c(=O)n2C)cc1 | 10 | 4600 | > 1000 | Activity [5]: 41% |
| CC(=O)OC(c1ccccc1)C(C)N1CCCn2c1nc1c2c(=O)n(C)c(=O)n1C (configuration not stated) |  | 1220 |  |  |
| Cn1c(=O)c2c(nc3n2CCCN3CCNCc2ccc(F)cc2)n(C)c1=O | 2.63 | 14000 |  |  |
| CC(=O)Nc1ccc(OCCN2CCCn3c2nc2c3c(=O)n(C)c(=O)n2C)cc1 | 10 | 2020 | > 1000 | Activity [5]: 41% |
| Cn1c(=O)c2c(nc3n2CCCN3CCOc2ccc(Cl)cc2Cl)n(C)c1=O | 3.5 | 1090 |  |  |
| CC(C(O)c1ccccc1)N1CCCn2c1nc1c2c(=O)n(C)c(=O)n1C (configuration not stated) | 25 | 2160 |  | Activity [15]: 45% |
| COc1ccc(CCN2CCCn3c2nc2c3c(=O)n(C)c(=O)n2C)cc1OC | ≥ 25 | 1210 |  | Activity [15]: 33% |
| Cn1c(=O)c2c(nc3n2CCCN3CCc2ccc(Cl)cc2)n(C)c1=O | 6.47 | 480 |  | Activity (Mus musculus [16]): Toxic |
| COc1ccc(CCN2CCCn3c2nc2c3c(=O)n(C)c(=O)n2C)cc1 | 3.85 | 370 |  |  |
| CCCn1c(=O)c2c(nc3n2CCCN3CCc2ccc(OC)c(OC)c2)n(CCC)c1=O | 0.82 | 1330 | > 1000 |  |
| Cn1c(=O)c2c(nc3n2CCCN3CCc2ccc(O)cc2)n(C)c1=O | 25 |  | > 10000 | Inhibition (Adenosine receptor A3 [10]): 9%; Ki (Adenosine receptor A1 [13]): ≥ 25 µM; Activity [14]: 34% |
| Cn1c(=O)c2c(nc3n2CCCN3CCOC(=O)Nc2ccc(Cl)cc2)n(C)c1=O | > 10 | > 10000 |  | Activity [4]: 32%; Activity [5]: 24%; Activity (Mus musculus [17]): Toxic |
| Cn1c(=O)c2c(nc3n2CCCN3CCOC(=O)Nc2cccc(Cl)c2)n(C)c1=O | > 10 | > 10000 |  | Activity [4]: 33%; Activity [5]: 10% |
| CC(=O)OC(CN1CCCn2c1nc1c2c(=O)n(C)c(=O)n1C)c1ccccc1 (configuration not stated) |  | 1000 |  | Activity [15]: 50% |
| Cn1c(=O)c2c(nc3n2CCCN3CCOC(=O)Nc2ccc(F)cc2)n(C)c1=O | > 10 | ≥ 10000 |  | Activity (Mus musculus [19]): Toxic; Activity [4]: 42%; Activity [5]: 13% |
| CCCn1c(=O)c2c(nc3n2CCCN3CCc2c[nH]c3ccccc23)n(CCC)c1=O | 1.79 | 900 | > 1000 |  |

Continued, in another order:

| Ki (Adenosine receptor A1 [1]) [µM] | Ki (Adenosine receptor A2a [3]) [nM] | Ki (Adenosine receptor A3 [9]) [nM] | SMILES | also measured |
| --- | --- | --- | --- | --- |
| 7.55 | 20000 |  | Cn1c(=O)c2c(nc3n2CCCN3CCNCc2ccccc2)n(C)c1=O | Ki (Adenosine receptor A2b): > 10 µM; Activity [2]: 27% |
| > 10 | > 10000 |  | Cn1c(=O)c2c(nc3n2CCCN3CCOC(=O)Nc2ccccc2)n(C)c1=O | Activity [4]: 35%; Activity [5]: 3% |
| 25 | 330 | > 10000 | Cn1c(=O)c2c(nc3n2CCCN3CCc2c[nH]c3ccccc23)n(C)c1=O | Activity [7]: 56%; Inhibition (Adenosine receptor A3 [10]): 21%; Ki (Adenosine receptor A2a [11]): 4.56 µM; Ki (Adenosine receptor A2b): 10 µM; Ki (Adenosine receptor A1 [13]): > 25 µM; Activity [14]: 21% |
| 10 | 4290 | > 1000 | Cn1c(=O)c2c(nc3n2CCCN3CCOC/C=C/c2ccccc2)n(C)c1=O | Activity [5]: 36% |
| 3.68 | 3050 |  | Cn1c(=O)c2c(nc3n2CCCN3CCOCc2ccc(F)cc2)n(C)c1=O |  |
| 25 | 1110 |  | Cn1c(=O)c2c(nc3n2CCCN3CC(O)c2ccccc2)n(C)c1=O (configuration not stated) | Activity [15]: 49% |
| 10 | 1330 |  | Cn1c(=O)c2c(nc3n2CCCN3CCOCc2ccc(Cl)cc2)n(C)c1=O | Activity [5]: 48% |
| 3.16 | 3690 |  | Cn1c(=O)c2c(nc3n2CCCN3CCOCc2ccccc2)n(C)c1=O |  |
| > 25 | > 25000 | > 10000 | Cn1c(=O)c2c(nc3n2CCCN3CCc2ccccn2)n(C)c1=O | Activity [6]: 37%; Ki (Adenosine receptor A2b): 13.4 µM |
| 1.99 | 1100 |  | Cn1c(=O)c2c(nc3n2CCCN3CCCc2ccccc2)n(C)c1=O | Activity (Mus musculus [18]): Toxic |
